In article PMC10714400, “Antimicrobial Peptide–Peptoid Hybrids with and without Membrane Disruption” (ACS Infectious Diseases, 2023):
Values after ≈ are worked out from the molar mass of the structure shown. Where a SMILES comes first, the peptide text is derived from it. [ ]: non-standard residue; d: D form. Nleu = CC(C)CNCC(=O)O

Experiments:
[1] = test system: human red blood cells (hRBC); experiment: Minimum hemolytic concentration (MHC); type: cell-based
From the text: We also measured minimal hemolysis concentrations (MHC) on human red blood cells by serial 2-fold dilution as an indication of toxicity against eukaryotic cells (Table 1).

[2] = Circular dichroism, α-helical content; type: physicochemical; settings: 0.1 mg/mL; for CD %α with 5 mM DPC: 10 mM phosphate buffer pH 7.4, 5 mM DPC; for CD %α with 20% TFE: 10 mM phosphate buffer pH 7.4, 20% TFE
P. aeruginosa PA14 = settings: Table S3; […] MH at pH 8.5, 16-20 hours at 37 °C
Experimental: (§1) Antimicrobial activity was assayed for all the peptide–peptoids against P. aeruginosa PAO1, K. pneumoniae NCTC418, E. coli W3110, A. baumannii ATCC 19606, methicillin-resistant S. aureus COL (MRSA), and for selected peptides on P. aeruginosa PA14 and the polymyxin-B-resistant derivatives PA14 4.13, PA14 4.18, PA14 2P4, as well as the clinical isolates ZEM-1A and ZEM9A, K. pneumoniae OXA-48, S. aureus Newman, Enterobacter cloacae, Stenotrophomonas maltophilia, Burkholderia cenocepacia, and Staphylococus epidermidis. To determine the Minimal Inhibitory Concentration (MIC), the Broth Microdilution method was used.[72] A colony of bacteria was picked and grown in LB medium overnight at 37 °C.
(§2) To each well was finally added 4 μL of the diluted bacterial suspension (see above), corresponding to approximately 5 × 10^5 CFU. For each test, two columns of the plate were kept for sterility control (medium only), growth control (medium with bacterial inoculum, no compound). The positive control, Polymyxin B (starting with a concentration of 16 μg/mL) in MH medium with bacterial inocula, was introduced in the two lines of the plate. […] Next, 15 μL of 3-(4,5-dimethylthiazol-2-yl)-2,5-diphenyltetrazolium bromide (MTT)[73] (1 mg/mL in sterilized MilliQ deionized water) were added to each well, and the plates were incubated for 20–30 min at room temperature. The minimal inhibitory concentration (MIC) was defined as the lowest concentration of the compound that inhibits the visible growth of the tested bacteria (yellow) with the unaided eye.

S. aureus Newman = settings: Table S3; […] MH at pH 8.5
Experimental: as §1, §2

P. aeruginosa PAO1 = test system: P. aeruginosa PAO1
Experimental: as §1
(§3) To each well was finally added 4 μL of the diluted bacterial suspension (see above), corresponding to approximately 5 × 10^5 CFU. For each test, two columns of the plate were kept for sterility control (medium only), growth control (medium with bacterial inoculum, no compound). The positive control, Polymyxin B (starting with a concentration of 16 μg/mL) in MH medium with bacterial inocula, was introduced in the two lines of the plate. The plates were incubated at 37 °C for ca. 18 h under static conditions. Next, 15 μL of 3-(4,5-dimethylthiazol-2-yl)-2,5-diphenyltetrazolium bromide (MTT)[73] (1 mg/mL in sterilized MilliQ deionized water) were added to each well, and the plates were incubated for 20–30 min at room temperature. The minimal inhibitory concentration (MIC) was defined as the lowest concentration of the compound that inhibits the visible growth of the tested bacteria (yellow) with the unaided eye.

A. baumannii ATCC19606 = test system: A. baumannii ATCC19606
Experimental: as §1, §3

PA14 4.18 (pmrB) = settings: CSV; […] MH at pH 8.5
Experimental: as §1, §3

E. coli W3110 = test system: E. coli W3110
Experimental: as §1, §3

K. pneumoniae NCTC418 = test system: K. pneumoniae NCTC418
Experimental: as §1, §3

PA14 2P4 (pmrB) = settings: CSV; […] MH at pH 8.5
Experimental: as §1, §3

S. aureus COL (MRSA) = test system: S. aureus COL (MRSA)
Experimental: as §1, §3

PA14 4.13 (phoQ) = settings: […] MH at pH 8.5
Experimental: as §1, §3

CC(C)C[C@H](NC(=O)[C@H](CC(C)C)NC(=O)[C@H](CCCCN)NC(=O)[C@@H](N)CCCCN)C(=O)N[C@@H](CCCCN)C(=O)N[C@@H](CC(C)C)C(=O)N[C@@H](CC(C)C)C(=O)N[C@@H](CCCCN)C(=O)N(CC(=O)N(CC(=O)N(CC(N)=O)CC(C)C)CC(C)C)CC(C)C [EB3] (H-KKLLKLLK[Nleu][Nleu][Nleu]-NH2)
Hemolysis [1]: none of them showed any measurable hemolysis
MHC [1]: >2000 µg/mL
CD %α with 5 mM DPC ([2]; DichroWeb, Contin-LL): 13%
CD %α with 20% TFE ([2]; DichroWeb, Contin-LL): 15%
CD %α with 5 mM DPC ([2]; Table S2): 13%
CD %α with 20% TFE ([2]; Table S2): 15%
MIC P. aeruginosa PA14 (P. aeruginosa PA14): 4 µg/mL (≈ 3.03 µM)
MIC S. aureus Newman (S. aureus Newman): 4 µg/mL (≈ 3.03 µM)
MIC P. aeruginosa PAO1, full MH at pH 7.4 (P. aeruginosa PAO1; PAO1, 4 h, pH 7.4): >32 ug/mL
MIC P. aeruginosa PAO1, full MH at pH 8.5 (P. aeruginosa PAO1; PAO1, 4 h, pH 8.5): 16 ug/mL
MIC P. aeruginosa PAO1 […] 7.4 (P. aeruginosa PAO1; Table S2, […] MH, pH 7.4): 16 µg/mL (≈ 12.1 µM)
MIC P. aeruginosa PAO1 […] 8.5 (P. aeruginosa PAO1; Table S2, […] MH, pH 8.5): 4 µg/mL (≈ 3.03 µM)
MIC P. aeruginosa PAO1 Full MH 7.4 (P. aeruginosa PAO1; Table S2, full MH, pH 7.4): > 32 µg/mL
MIC P. aeruginosa PAO1 Full MH 8.5 (P. aeruginosa PAO1; Table S2, full MH, pH 8.5): 16 µg/mL (≈ 12.1 µM)
MIC A. baumannii ATCC19606, full MH at pH 7.4 (A. baumannii ATCC19606; ATCC19606, 4 h, pH 7.4): >32 ug/mL
MIC A. baumannii ATCC19606, full MH at pH 8.5 (A. baumannii ATCC19606; ATCC19606, 4 h, pH 8.5): >32 ug/mL
MIC A. baumannii ATCC19606 […] 7.4 (A. baumannii ATCC19606; Table S2, […] MH, pH 7.4): 32 µg/mL (≈ 24.2 µM)
MIC A. baumannii ATCC19606 […] 8.5 (A. baumannii ATCC19606; Table S2, […] MH, pH 8.5): 16 µg/mL (≈ 12.1 µM)
MIC A. baumannii ATCC19606 Full MH 7.4 (A. baumannii ATCC19606; Table S2, full MH, pH 7.4): > 32 µg/mL
MIC A. baumannii ATCC19606 Full MH 8.5 (A. baumannii ATCC19606; Table S2, full MH, pH 8.5): > 32 µg/mL
MIC P. aeruginosa PA14 4.18, […] MH at pH 8.5 (PA14 4.18 (pmrB)): 8 ug/mL
MIC E. coli W3110, […] MH at pH 7.4 (E. coli W3110; CSV, […] MH at pH 7.4): 4 ug/mL
MIC E. coli W3110, […] MH at pH 8.5 (E. coli W3110; CSV, […] MH at pH 8.5): 3 ug/mL
MIC E. coli W3110, full MH at pH 7.4 (E. coli W3110; CSV, full MH at pH 7.4): >32 ug/mL
MIC E. coli W3110 […] 7.4 (E. coli W3110; Table S2, […] MH, pH 7.4): 4 µg/mL (≈ 3.03 µM)
MIC E. coli W3110 […] 8.5 (E. coli W3110; Table S2, […] MH, pH 8.5): 2 to 4 µg/mL
MIC E. coli W3110 Full MH 7.4 (E. coli W3110; Table S2, full MH, pH 7.4): > 32 µg/mL
MIC E. coli W3110 Full MH 8.5 (E. coli W3110; Table S2, full MH, pH 8.5): 16 µg/mL (≈ 12.1 µM)
MIC K. pneumoniae NCTC418, full MH at pH 7.4 (K. pneumoniae NCTC418; NCTC418, 4 h, pH 7.4): >32 ug/mL
MIC K. pneumoniae NCTC418 […] 7.4 (K. pneumoniae NCTC418; Table S2, […] MH, pH 7.4): > 32 µg/mL
MIC K. pneumoniae NCTC418 […] 8.5 (K. pneumoniae NCTC418; Table S2, […] MH, pH 8.5): 16 µg/mL (≈ 12.1 µM)
MIC K. pneumoniae NCTC418 Full MH 7.4 (K. pneumoniae NCTC418; Table S2, full MH, pH 7.4): > 32 µg/mL
MIC K. pneumoniae NCTC418 Full MH 8.5 (K. pneumoniae NCTC418; Table S2, full MH, pH 8.5): 32 µg/mL (≈ 24.2 µM)
MIC P. aeruginosa PA14 2P4, […] MH at pH 8.5 (PA14 2P4 (pmrB)): 16 ug/mL
MIC S. aureus COL (MRSA), full MH at pH 7.4 (S. aureus COL (MRSA); COL, 4 h, pH 7.4): >32 ug/mL
MIC S. aureus COL (MRSA), full MH at pH 8.5 (S. aureus COL (MRSA); COL, 4 h, pH 8.5): 32 ug/mL
MIC S. aureus COL (MRSA) […] 7.4 (S. aureus COL (MRSA); Table S2, […] MH, pH 7.4): 32 µg/mL (≈ 24.2 µM)
MIC S. aureus COL (MRSA) […] 8.5 (S. aureus COL (MRSA); Table S2, […] MH, pH 8.5): 8 µg/mL (≈ 6.05 µM)
MIC S. aureus COL (MRSA) Full MH 7.4 (S. aureus COL (MRSA); Table S2, full MH, pH 7.4): > 32 µg/mL
MIC S. aureus COL (MRSA) Full MH 8.5 (S. aureus COL (MRSA); Table S2, full MH, pH 8.5): 32 µg/mL (≈ 24.2 µM)
MIC P. aeruginosa PA14 4.13, […] MH at pH 8.5 (PA14 4.13 (phoQ); CSV): 6 ug/mL
MIC P. aeruginosa PA14 4.13 (PA14 4.13 (phoQ); Table S3): 4 to 8 µg/mL
